“Also recorded” adds a separate entry of the source. Read-outs that look alike come from different tables or passages of the source.
How the values were obtained:
X. campestris = conditions: for A600: 36 hours at 28° C.
[1] = tested on: Pectobacterium carotovorum subsp. brasiliense (Pcb); test: In planta trial on Pcb-infiltrated potato tubers; conditions: weekly foliar spray or root drench
[2] = Fenton activity test with H2O2 and methylene blue
[3] = Stability of ferrous iron complexes in solution over 180 days; conditions: for Ferrous iron / Total iron: room temperature in the dark; for Stability of solutions of the complex: stored at ambient temperature (TFDC in the dark)
[4] = Total, ferrous and ferric iron content of the complexes immediately after preparation (1,10-phenanthroline); conditions: 50 mM solution; for Ferric iron: total minus ferrous
[5] = Reduction of ferric iron in the ferric tri-pyruvate complex over 10 days; assay type: physicochemical
Method: A 50 mM solution of the ferric tri-pyruvate complex was prepared as described in Example 5. The stability of the complex was measured by determining the total iron, ferrous iron and ferric iron over the course of 10 days.

C. liberibacter spp = assay type: in vivo, rough lemon trees; conditions: 50 μM, foliar or root drench, every three days over three months
Bacillus subtilis = test: Bactericidal and sporicidal activity on Bacillus subtilis cells or spores suspended in water; assay type: cell-based; conditions: increasing concentrations and exposure times; 10 mM sodium ascorbate, sub-inhibitory hydrogen peroxide
Method: Because of its activity as a Fenton reagent, FDP produces reactive oxygen species (e.g. hydroxyl radicals, superoxide radicals) that are toxic to bacterial spores and spore-forming bacteria. […] After exposure to FDP for various periods of time, the number of viable colony-forming units is determined by plating aliquots of serial dilutions of the solutions.

spores of B. subtilis = test: Decontamination of surfaces contaminated with B. subtilis spores; assay type: cell-based, Bacillus subtilis; conditions: swabbing or spraying, optionally mixed with ascorbate and/or hydrogen peroxide
Method: In additional experiments, surfaces that have been intentionally contaminated with spores of B. subtilis are wiped or sprayed with solutions of FDP (e.g., 1 mM, 2 mM, 3 mM, 4 mM, 5 mM, 6 mM, 7 mM, 8 mM, 9 mM, 10 mM, 12.5 mM, 15 mM, 20 mM, 25 mM, 50 mM, 75 mM 100 mM or more); optionally including ascorbate (e.g. 10 mM) and/or hydrogen peroxide at a concentration of, e.g., 1 mM or less, 2 mM or less, 3 mM or less, 4 mM or less, 5 mM or less, 6 mM or less, 7 mM or less, 8 mM or less, 9 mM or less, 10 mM or less, 12.5 mM or less, 15 mM or less, 20 mM or less, 25 mM or less, 30 mM or less, 40 mM or less, 50 mM or less, 60 mM or less, 70 mM or less, 80 mM or less, 90 mM or less, 100 mM or less, 125 mM or less, 150 mM or less, 175 mM or less, or 200 mM or less. The surfaces are then swabbed, the swabs are suspended in water or medium, and CFU are determined by plating aliquots of serial dilutions of the liquid in which the swabs were suspended.

[6] = 1 ml 50 mM complex + 1 ml 40% H2O2, 0.1% (w/v) methylene blue, 1 hour at ambient temperature
[7] = 60 Days after complex formation
[8] = 180 Days after complex formation
[9] = 0 days after complex formation, 50 mM solution
[10] = 1 day after complex formation, 50 mM solution
[11] = 7 days after complex formation, 50 mM solution
[12] = 10 days after complex formation, 50 mM solution

O=C1O[C@H]([C@@H](O)CO)C([O-])=C1O.[Na+] [ascorbate, sodium ascorbate, reference compound]
A600 (X. campestris; no preincubation, addition 5 mM ascorbate): 0.512

O=C([O-])CC(O)(CC(=O)[O-])C(=O)[O-].O=C([O-])CC(O)(CC(=O)[O-])C(=O)[O-].[Fe+2].[Fe+2].[Fe+2] [tri-ferrous di-citrate]
Symptoms of Pcb infection in potato plants [1]: reduce symptom of Pcb infection | Fenton activity (loss of blue color, brown precipitate) [2, 6]: exhibited Fenton activity | Fenton activity (loss of blue color, brown precipitate) ([2]; 1 ml 50 mM complex + 1 ml 40% H2O2, 0.1% (w/v) methylene blue, 1 hour at ambient temperature, listed as tri-ferrous di-citrate complex): significant Fenton activity | Light sensitivity on storage [3]: must be stored in the dark to prevent autodegradation | Ferrous iron ([3]; 1 Day after complex formation): 100 mM | Total iron ([3]; 1 Day after complex formation): 100 mM | Ferrous iron [3, 7]: 99 mM | Total iron [3, 7]: 100 mM | Ferrous iron [3, 8]: 98 mM | Total iron [3, 8]: 100 mM | Stability of solutions of the complex [3]: stable for up to six months | Ferrous iron [4]: 49.7 mM | Total iron [4]: 50 mM | Ferric iron [4]: <1 mM

ferric tri-pyruvate [ferric tri-pyruvate complex]
Ferric iron [5, 9]: >49 mM | Ferrous iron [5, 9]: <1 mM | Total iron [5, 9]: 50 mM | Oxidation state of the iron upon formation of the complex ([5]; 50 mM solution): essentially all the iron was in the ferric oxidation state | Ferric iron [5, 10]: 39 mM | Ferrous iron [5, 10]: 11 mM | Total iron [5, 10]: 50 mM | Ferric iron [5, 11]: 2 mM | Ferrous iron [5, 11]: 48 mM | Total iron [5, 11]: 50 mM | Ferric iron [5, 12]: 2 mM | Ferrous iron [5, 12]: 48 mM | Total iron [5, 12]: 50 mM | Reduction of ferric ions to ferrous ([5]; after one week (7-day period)): essentially all iron is in the ferrous oxidation state; also recorded: essentially all the ferric iron was reduced to the ferrous oxidation state | Reduction of ferric ions to ferrous ([5]; within one day after formation of the complex, ambient conditions): approximately one-fifth of ferric ions have been reduced to ferrous | Fenton activity (loss of blue color, brown precipitate) ([2]; 14-day old reduced complex, 50 mM + 40% H2O2, 1 hour at ambient temperature): significant Fenton activity

ferrous di-pyruvate
Number of leaf and root samples containing C. liberibacter spp nucleic acid (PCR) (C. liberibacter spp): reduces the number of leaf and root samples containing C. liberibacter spp nucleic acid | Number of plants showing signs of chlorosis (C. liberibacter spp): reduces the number of plants showing signs of chlorosis | Cell killing of B. subtilis cells or spores (viable CFU) (Bacillus subtilis): higher levels of cell killing | Sterilization of surfaces contaminated with B. subtilis spores (spores of B. subtilis): sterilizes the surfaces | Effect on growth of X. campestris (in words) (X. campestris; Table 5, most pronounced after preincubation with ascorbate and copper): able to block the growth of X. campestris | Killing of X. campestris (in words) (X. campestris; Table 6, most pronounced after preincubation with ascorbate and copper): able to kill X. campestris | CFU (X. campestris; no preincubation, addition 5 mM ascorbate + 5 μM Cu(II) + 0.25 mM FDP, 36 hour treatment): 2.28 × 10^9 CFU per ml | A600 (X. campestris; no preincubation, addition 5 mM ascorbate + 5 μM Cu(II) + 0.25 mM FDP): 0.420 | A600 (X. campestris; no preincubation, addition 5 mM ascorbate + 0.25 mM FDP): 0.447 | Symptoms of Pcb infection in potato plants [1]: reduce symptom of Pcb infection | Fenton activity (loss of blue color, brown precipitate) [2, 6]: exhibited Fenton activity | Fenton activity (loss of blue color, brown precipitate) ([2]; 1 ml 50 mM complex + 1 ml 40% H2O2, 0.1% (w/v) methylene blue, 1 hour at ambient temperature, listed as ferrous di-pyruvate complex): significant Fenton activity | Ferrous iron ([3]; 1 Day after complex formation): 99 mM | Total iron ([3]; 1 Day after complex formation): 100 mM | Ferrous iron [3, 7]: 97 mM | Total iron [3, 7]: 100 mM | Ferrous iron [3, 8]: 98 mM | Total iron [3, 8]: 100 mM | Stability of solutions of the complex [3]: stable for up to six months | Ferrous iron [4]: 49.5 mM | Total iron [4]: 50 mM | Ferric iron [4]: <1 mM

mono-ferrous di-citrate [mono-ferrous di-citrate complex, reference compound]
Fenton activity (loss of blue color, brown precipitate) [2, 6]: little to no Fenton activity

mono-ferrous mono-citrate [mono-ferrous mono-citrate complex, reference compound]
Fenton activity (loss of blue color, brown precipitate) [2, 6]: little to no Fenton activity

Reference: patent US20220304309A1, “IRON COMPLEXES AND USES THEREFOR” (priority 2019, published 2022)
